In ChEMBL document CHEMBL3044550, “Insect antifeedant potent 6-substituted -bromo-2-naphthones” (2011):
The source made the active and inactive calls. The rule behind the calls is not given here.

What follows are compounds tested on Achaea janata (assay: Antifeedant activity against Achaea janata L. fourth-instar larvae fed on 100 ppm compound pre-treated castor leaves for 24 hrs assessed total leaf disks consumed in 24 hrs by leaf disk bioassay).
Type: functional, organism-based
For `O=C(CBr)c1ccc2cc(Br)ccc2c1`, the Activity was “Active”.

What follows are compounds tested on Achaea janata (assay: Achaea janata L. fourth-instar larvae fed on 200 ppm compound pre-treated castor leaves for 24 hrs assessed total leaf disks consumed in 24 hrs by leaf disk bioassay).
Type: functional
`O=C(CBr)c1ccc2cc(Cl)ccc2c1` was tested, and the Activity was 4.5. In the case of `CS(=O)(=O)c1ccc2cc(C(=O)CBr)ccc2c1`, the Activity was 9. In the case of `O=C(CBr)c1ccc2ccccc2c1`, the Activity was 6.5. `O=C(CBr)c1ccc2cc(F)ccc2c1` showed an Activity of 5. For `O=C(CBr)c1ccc2cc(Br)ccc2c1`, the Activity was 3.5. For `CSc1ccc2cc(C(=O)CBr)ccc2c1`, the Activity was 8. `COc1ccc2cc(C(=O)CBr)ccc2c1` gave an Activity of 4. `Cc1ccc2cc(C(=O)CBr)ccc2c1` showed an Activity of 9. With `O=C(CBr)c1ccc2cc(O)ccc2c1` the Activity was 4.
